The numbers were not newly measured in US5275819A, “Drug loaded pollen grains with an outer coating for pulsed delivery” (Amer Particle Technologies Inc., priority 1991, dated 1994), which cites them from elsewhere.

For the series the following is noted: compared with GNRH.

Regarding `CC(C)C[C@H](NC(=O)[C@@H](Cc1ccc2ccccc2c1)NC(=O)[C@H](Cc1ccc(O)cc1)NC(=O)[C@H](CO)NC(=O)[C@H](Cc1c[nH]c2ccccc12)NC(=O)[C@H](Cc1c[nH]cn1)NC(=O)[C@@H]1CCC(=O)N1)C(=O)N[C@@H](CCCNC(=N)N)C(=O)N1CCC[C@H]1C(=O)NCC(N)=O` [Nafarelin], the “activity relative to GNRH” value is on record as 200 times.
